# Assay results: patent US9364551B2, “Light-enabled drug delivery” (Virginia Commonwealth University, priority 2011, dated 2016)
# Structures can show the parent of a compound that is named as a salt. Where two headings read alike, the source gives them in different places. Where no end group is shown, it is not given here. [ ]: non-standard residue; d: D form. bis‑iodoacetamido azobenzene = bis-iodoacetamido azobenzene crosslinker; Aib = CC(C)(N)C(=O)O
# Legend:
# JH-EsoAd1 cells [1] = test: Concentration dependent cell viability (MTT assay); type: cell-based
# Experimental: (§1) The Esophageal cancer cell line (JH-EsoAd1) was cultured at 37° C. and in a humidified atmosphere of 5% CO2 in RPMI 1640 medium supplemented with 10% fetal bovine serum (FBS). For 96 well plate experiments, the JH-EsoAd1 cells were seeded at 4450 cells/well in 100 uL of media in 96 well plates; experiments were carried out one day after seeding. MTT assays were analyzed using a Bio-Tex μQuant plate reader at 562 nm. FACS was performed BD FACS Aria II using BD FACS Diva software at the VCU Flow Cytometry Core Facility. A minimum of 20,000 cells within the gated region were analyzed. Confocal microscopy images were acquired at room temperature with a Leica confocal laser scanning microscope.
# (§2) JH-EsoAd1 cells were treated with media alone, media supplemented with EDANS (20 μM), or media supplemented with Dox-EDANS (9) (20 μM) in a 96 well clear-bottom, opaque plate. Cells were exposed to light (9 mW/cm^2) for various times (0-40 min) regulated by an aluminum foil mask. During the experiment the plate was kept in ice to reduce the heating by the UV lamp. After the lamp was turned off, the plate was covered with foil and placed at room temperature for an additional 80 min. The media was removed, and the cells were thoroughly washed with media (3×); then 200 μL of fresh media was added to each well. The plates were incubated for 72 hours at 37° C., following which the media was removed and 100 µL of MTT (2 mg/ml) in phosphate buffered saline (PBS) was added to each well. After 3 hours, the MTT solution was removed and replaced with 100 μL of DMSO. The absorbance at 562 nm was analyzed via a plate reader.
# JH-EsoAd1 cells were treated with media supplemented with various concentrations of doxorubicin (0-6.4 μM) or Dox-EDANS (9) (0-16 μM) in a 96 well clear-bottom, opaque plate. Control wells were covered with aluminum foil while the remaining wells were exposed UV light (9 mW/cm^2) for 20 min. The plate was kept in ice during light exposure in order to minimize the heating. After irradiation, the plate was kept at it in the dark for another 100 minutes. […]
# JH-EsoAd1 cells [2] = test: Illumination time-dependent toxicity (MTT assay); type: cell-based
# Experimental: as §1
# as §2, with “The plates were incubated for 72 hours at 37° C., following which the media was removed and 100 µL of MTT (2 mg/ml) in phosphate buffered saline (PBS) was added to each well. After 3 hours, the MTT solution was removed and replaced with 100 μL of DMSO.” left out
# [3] = Photolytic release of doxorubicin from drug conjugate (RP-HPLC); type: physicochemical; details: PBS buffer, UV light 365 nm (9.0 mW/cm^2), 0.5-30 min
# Experimental: The photolytic release of doxorubicin from the drug conjugate was analyzed using HPLC. The drug conjugate was dissolved in PBS buffer and was exposed to UV light at 365 nm (9.0 mW/cm^2). Aliquots of the reaction mixture were collected at various times and were analyzed on RP-HPLC.
# A solution (0.065 mM in 1 mL) of compound 6 in PBS was placed in a 60×15 mm well plastic dish placed on ice. The solution was irradiated and 70 μL was removed at various time points (0.5, 1, 2, 4, 8, 15, 20, and 30 minutes). Each assay was analyzed on RP-HPLC using isocratic elution of 20% organic eluent (0.1% TFA in acetonitrile) for 5 minutes and then using gradient elution from 20% to 70% for 30 minutes and was monitored at λabs=480 nm. (See FIG. 14).
# JH-EsoAd1 cells [4] = test: Confocal microscopic analysis of permeability; type: cell-based; details: 10 μM, light-treated cells vs dark
# Experimental: as §1
# JH-EsoAd1 cells were seeded at 30,000 cells/well on 4 well glass chamber slides, and were treated as above (Flow cytometry analysis). The cells were treated with media alone or media supplemented with 10 μM of EDANS-Dox (6). The plate was placed on ice, and the light treated cells were exposed to UV light (9 mW/cm^2) for 20 minutes. Following the light exposure the plates were kept at room temperature for 100 minutes. The cells were washed extensively with PBS and fixed for 15 min at 37° C. with 3% paraformaldehyde in PBS. Slides were rinsed, dried and mounted under coverslips using Vectashield mounting media (Vector Laboratories, Inc.).
# [5] = HPLC monitoring of azobenzene cis to trans thermal relaxation after illumination; type: physicochemical; details: fit to exponential decay
# Excerpt: We also monitored the switching of the azobenzene by HPLC, since we were able to separate both the cis and trans peptide isomers (FIG. 19B). After illumination the cis isomer reverted to the trans isomer over time. […] The half-life is in line with measurements of similar peptides, but the % cis is lower than the typical 80-95%. Use of a filter to eliminate the longer wavelength light (our light source has a spike of intensity at 405 nm which can promote cis to trans reversion) would enhance photoswitching upon irradiation.
# [6] = CD spectra of photoswitching; type: physicochemical
compound,measurement,setting,value
"COc1cccc2c1C(=O)c1c(O)c3c(c(O)c1C2=O)C[C@@](O)(C(=O)CO)C[C@@H]3O[C@H]1C[C@H](N)[C@H](O)[C@H](C)O1 [Dox, Doxorubicin Hydrochloride, reference compound]",IC50,"JH-EsoAd1 cells [1]; Dox alone, read-out: IC50 of Dox alone with the JH-EsoAd1 cells",1000 ± 400 nM
"COc1cc(C(C)OC(=O)NC2C[C@H](OC3C[C@](O)(C(=O)CO)Cc4c(O)c5c(c(O)c43)C(=O)c3c(OC)cccc3C5=O)C[C@@H](C)[C@H]2O)c([N+](=O)[O-])cc1OCCCC(=O)NCc1cn(-c2ccc(C(=O)NCCNc3cccc4c(S(=O)(=O)O)cccc34)cc2)nn1 (stereo partly shown) [EDANS-Dox, Photocaged-Cell Impermeable Dox. Conjugate]",Survival of cells in the dark,JH-EsoAd1 cells [2]; in the dark,equivalent to controls with no drug added
same,Cell survival with increased illumination,"JH-EsoAd1 cells [2]; light 9 mW/cm^2, 0-40 min",decreased survival
same,photolytic release of doxorubicin,[3],time-depended drug release in the presence of light
same,IC50,"JH-EsoAd1 cells [1]; 20 min, illumination 365 nm, 9.0 mW/cm^2, 20 min, read-out: IC50, cytotoxicity upon illumination",1600 ± 1000 nM
same,toxicity to the cells in the dark,"JH-EsoAd1 cells [1]; in the dark, at the highest value tested (16 µM)",not toxic
same,Dox fluorescence in the nucleus (confocal),JH-EsoAd1 cells [4],only light-treated cells show significant Dox fluorescence in the nucleus
"*CRACARVXAACRAAARQ (RACARV[Aib]AACRAAARQ; linker (positions not given here) via bis‑iodoacetamido azobenzene; not fully specified (N-terminus, bridges); also: bis-iodoacetamido azobenzene crosslink, Cys pair not given here) [Peptide 1, arginine-rich photoswitchable peptide, cysteines crosslinked with bis-iodoacetamido azobenzene; X=2-aminoisobutyric acid]",percentage of cis isomer upon illumination,[5],55%
same,conformation upon irradiation (CD),"[6]; 370 nm light, 25° C., illumination for 5 min",more α-helical
same,conformation after removal of light (CD),[6]; after 30 minutes in the dark,reverted mostly back to the more random coiled state
